Laboratory results: PMC5913751 (Peptides, 2018)
Read-outs that look alike come from different tables or passages of the source. Where no end group is shown, it is not given here.

What was measured:
sheep erythrocytes = assay: Hemolysis assay; format: cell-based; settings: sheep erythrocytes in PBS, 37°C 18–24 hours, absorbance 567 nm
Fungus = settings: cited from earlier work
S.aureus = settings: cited from earlier work
Bacilius subtilis = settings: cited from earlier work
E.coli = settings: cited from earlier work
P.aeruginosa = settings: cited from earlier work
[1] = system: gram-negative bacteria, mostly E.coli and P. aeruginosa; settings: range stated jointly; ref Table 5.0 ([28], [30]–[32]); cited from earlier work
R. solani Khun = settings: against R. solani Khun; ref [34]; cited from earlier work

With CC[C@H](C)[C@H](NC(=O)CN)C(=O)NCC(=O)N[C@@H](C)C(=O)N[C@H](C(=O)N[C@@H](CC(C)C)C(=O)N[C@@H](CCCCN)C(=O)N[C@H](C(=O)N[C@@H](CC(C)C)C(=O)N[C@H](C(=O)N[C@H](C(=O)NCC(=O)N[C@@H](CC(C)C)C(=O)N1CCC[C@H]1C(=O)N[C@@H](C)C(=O)N[C@@H](CC(C)C)C(=O)N[C@H](C(=O)N[C@@H](CO)C(=O)N[C@@H](Cc1c[nH]c2ccccc12)C(=O)N[C@H](C(=O)N[C@@H](CCCCN)C(=O)N[C@@H](CCCNC(=N)N)C(=O)N[C@@H](CCCCN)C(=O)N[C@@H](CCCNC(=N)N)C(=O)N[C@@H](CCC(N)=O)C(=O)N[C@@H](CCC(N)=O)C(N)=O)[C@@H](C)CC)[C@@H](C)CC)[C@@H](C)O)[C@@H](C)O)C(C)C)C(C)C [Melittin] the “concentration at which RBCs are lysed” value (sheep erythrocytes) was no less than 12500 ng/mL.
In the case of Bactrocerin-1, the “MIC values Fungus” value (Fungus; ref [37]) is given as 26.0 to 104.7 µg/mL, the “MIC values S.aureus” value (S.aureus; ref [37]) is given as 6.5 µg/mL and the “MIC values Bacilius subtilis” value (Bacilius subtilis; ref [37]) is given as 13.0 µg/mL. The “MIC values E.coli” value (E.coli; ref [37]) was greater than 232.5 µg/mL.
In the case of “Cecropin A (KWKLFKKIEKVGQNIRDGIIKAGPAVAVVGQATQIAK; ends and bridges not checked; UniProt P01507 27-63, looked up)”, the “MIC values P.aeruginosa” value (P.aeruginosa; ref [28]) is listed as 2.5 µg/mL, the “MIC values E.coli” value (E.coli; ref [28]) is listed as 2.5 µg/mL and the “MIC range against different strains of gram-negative bacteria” value (“MIC range against different strains” for short) [1] is listed as 2 to 20 µg/mL.
In the case of “Cecropin B (KWKVFKKIEKMGRNIRNGIVKAGPAIAVLGEAKAL; ends and bridges not checked; UniProt P01508 27-61, looked up)”, the “MIC values P.aeruginosa” value (P.aeruginosa; ref [28]) is given as 2.5 µg/mL, the “MIC values P.aeruginosa” value (P.aeruginosa; ref [30]) is given as greater than 100 µg/mL and the “MIC values S.aureus” value (S.aureus; ref [31]) is given as greater than 128 µg/mL. The “MIC values E.coli” value (E.coli; ref [28]) was 2.5 µg/mL, the “MIC values E.coli” value (E.coli; ref [30]) was 2 µg/mL and the “MIC values E.coli” value (E.coli; ref [31]) was 16 µg/mL. The “MIC range against different strains” value [1] was 2 to 20 µg/mL.
In the case of Cecropin P1, the “MIC values P.aeruginosa” value (P.aeruginosa; ref [32]) is given as 4 to 64 µg/mL, the “MIC values E.coli” value (E.coli; ref [32]) is given as 0.12 to 4 µg/mL and the “MIC range against different strains” value [1] is given as 2 to 20 µg/mL.
In the case of Galleria defensin, the “MIC values Fungus” value (Fungus; ref [38]) is given as 14.7 to 29.5 µg/mL.
In the case of Oh-defensin, the “MIC values Fungus” value (Fungus; ref [39]) is listed as 1.3 µg/mL, the “MIC values S.aureus” value (S.aureus; ref [39]) is listed as 1.25 µg/mL and the “MIC values E.coli” value (E.coli; ref [39]) is listed as 1.3 µg/mL.
In the case of Sapecin, the “MIC values S.aureus” value (S.aureus; ref [36]) is listed as 5.0 µg/mL, the “MIC values Bacilius subtilis” value (Bacilius subtilis; ref [36]) is listed as 20 to 39 µg/mL and the “MIC values E.coli” value (E.coli; ref [36]) is listed as greater than 78.0 µg/mL.
In the case of Trx-stomoxynZH1, the “MIC values Fungus” value (R. solani Khun) is given as > 98 against R. solani Khun μg/ml, the “MIC values S.aureus” value (S.aureus; ref [34]) is given as 27 to 54 µg/mL and the “MIC values E.coli” value (E.coli; ref [34]) is given as 15 to 30 µg/mL.
